What was measured:
normal rats = experiment: Oral glucose tolerance test in normal rats; format: in vivo, SD rats; conditions: extracts 300 mg/kg
Method: Prior to an oral glucose tolerance test, rats were fasted for 16 hours. And then saline for control group, 250 mg/kg of metformin, one of the biguanides drug for comparison group and each 300 mg/kg of Elfvingia applanata extracts, respectively, was orally administered to each group consisting of 10 rats. Thirty minutes later, 3 g/kg of glucose was orally administered to each rat with a feeding syringe. Blood samples were collected from carotid artery at (just before the oral administration of glucose), 60, 120, and 180 mins after glucose load for glucose assay.

[1] = target: T1, rat lenses aldose reductase (Rattus norvegicus, UniProt P07943); experiment: Rat lens aldose reductase inhibition (NADPH decrease at 340 nm, DL-glyceraldehyde substrate); format: biochemical, Sprague-Dawley rats
T1 construct: The supernatant fraction of the rat lens homogenate was prepared according to the procedure described in the literature; from tissue; host or cells: lenses of Sprague-Dawley rats
Method: Crude aldose reductase was prepared as follows: rat lenses were removed from Sprague-Dawley rats weighing 250˜280 g and frozen until use. […] Partially purified enzyme having its a specific activity of 6.5 U/mg was routinely used to test enzyme inhibition. The partially purified material was separated into 1.0 ml of aliquots and stored at −40° C.
Each 1.0 ml of cuvette containing equal units of enzyme, 0.1M sodium phosphate buffer (pH 6.2), 0.3 mM NADPH with or without 10 mM substrate and inhibitor was prepared.

STZ-diabetic rats [2] = experiment: Sorbitol accumulation in red blood cell, lenses and sciatic nerves of STZ-diabetic rats; format: in vivo, SD rats; conditions: 2 weeks
Method: Diabetes mellitus was induced in male SD rats, weighing 220-250 g, by a single intraperitoneal injection of strptozotocin (Sigma chemical CO., St. Louis, Mo., USA) dissolved in phosphate buffered saline acidified to pH 4.5 with 0.05 M citric acid (66 mg/kg body wt). Control rats were injected with the vehicle only. The animals were fed standard Lab. Chows and water ad. Lib. throughout the experiments. Two weeks later, the diabetes-induced rats were used in following experiments. […] The extract was suspended in saline containing 0.5% carboxymethyl cellulose. The animals were then sacrificed under ether anesthesia. The contents of sorbitol in the red blood cell, sciatic nerves, and lenses were determined enzymatically. Sorbitol was measured by a modification of the enzymatic assay procedure described in the literature (Clements, R. S. et al.; Science, 166(908), pp1007-8, 1969). 0.5 ml of protein-free filtrate of tissues was added to a reaction mixture consisting of 1.0 ml of 0.05 M glycine buffer adjusted to pH 9.4 containing 0.2 mM nicotinamide adenine dinucleotide (NAD) and 0.64 U of sorbitol dehydrogenase. Blanks untreated with the filtrate, NAD, or sorbitol dehydrogenase, were routinely run simultaneously. The relative fluorescence due to NADH was measured with an excitation wavelength of 366 nm and an emission wavelength of 452 nm. Epalrestat used in the present invention is a conventional therapeutic drug for diabetic complications.

STZ-diabetic rats [3] = experiment: Plasma glucose content in STZ-diabetic rats after 2 weeks of oral dosing; format: in vivo, Sprague-Dawley (SD) rats; conditions: 200 mg/kg/day intragastric
Method: All experiments were performed on Sprague-Dawley (SD) rats aged 10 weeks, weighed 200-250 g and purchased from the Seoul national university. The animals were acclimatized for 1-2 weeks before being used for the experiments. Standard pelleted diet and water were given ad libitum. Animals were maintained under constant 12 hours light and dark cycle and an environmental temperature ranging from 21 to 23° C. Diabetes mellitus was induced in male SD rats, weighing 220-250 g, by a single intraperitoneal injection of strptozotocin (Sigma chemical CO., St. Louis, Mo., USA) dissolved in phosphate buffered saline acidified to pH 4.5 with 0.05 M citric acid (66 mg/kg body wt). Control rats were injected with the vehicle only. The animals were fed standard Lab. Chows and water ad. Lib. throughout the experiments. Two weeks later, the diabetes-induced rats were used in following experiments. […] extracts were suspended in saline containing 0.5% carboxymethyl cellulose. The animals were then sacrificed under ether anesthesia and their blood samples were collected. Plasma glucose levels were determined by using a commercial kit.

With `CN(C)C(=N)N=C(N)N` [Metformin, metformin] the “Glucose, 1 hr” value (normal rats; 1 hr after 3 g/kg oral glucose load, metformin 250 mg/kg oral) was 140.1 ± 7.0 mg/dL, the “Glucose, 2hr” value (normal rats; 2 hr after 3 g/kg oral glucose load, metformin 250 mg/kg oral) was 122.8 ± 1.4 mg/dL and the “Glucose, 3hr” value (normal rats; 3 hr after 3 g/kg oral glucose load, metformin 250 mg/kg oral) was 139.7 ± 4.5 mg/dL. The “Glucose, 0 hr” value (normal rats; just before 3 g/kg oral glucose load, metformin 250 mg/kg oral 30 min earlier) was 54.5 ± 2.2 mg/dL.

`CC(/C=C1\SC(=S)N(CC(=O)O)C1=O)=C\c1ccccc1` [Epalrestat] gave an inhibition at 0.001 µg/mL ([1]; concentration 0.001 μg/ml) of 35%, an inhibition at 0.01 µg/mL ([1]; concentration 0.01 μg/ml) of 60.2% and an inhibition at 0.1 µg/mL ([1]; concentration 0.1 μg/ml) of 100%. For the same compound, the “Sorbitol in the lenses” value (STZ-diabetic rats [2]; lenses, 200 mg/kg/day intragastric) was 0.38 ± 0.05 nmol/mg dry wt, the “Inhibition (%) of sorbitol accumulation in the lenses” value (STZ-diabetic rats [2]; lenses, 200 mg/kg/day) was 52.5% and the “Sorbitol in the red blood cell” value (STZ-diabetic rats [2]; red blood cell, 200 mg/kg/day intragastric) was 108.7 ± 11.6 nmol/g Hg. For the same compound, the “Inhibition (%) of sorbitol accumulation in the red blood cell” value (STZ-diabetic rats [2]; red blood cell, 200 mg/kg/day) was 75.0%, the “Sorbitol in the sciatic nerves” value (STZ-diabetic rats [2]; sciatic nerves, 200 mg/kg/day intragastric) was 4.3 ± 0.5 nmol/mg dry wt and the “Inhibition (%) of sorbitol accumulation in the sciatic nerves” value (STZ-diabetic rats [2]; sciatic nerves, 200 mg/kg/day) was 58.2%. The Plasma glucose (STZ-diabetic rats [3]) was 3.9 ± 0.2 g/L and the “Inhibition (%) of plasma glucose” value (STZ-diabetic rats [3]; vs control) was 31.6%.

`O=C(O)CC1(CC(=O)O)CCCC1` [TMG, TetraMethylene Glutaric acid] was tested, and the “Inhibition (%) of aldose reductase” value ([1]; concentration 0.1 μg/ml) was 40.6%, the “Inhibition (%) of aldose reductase” value ([1]; concentration 1 μg/ml) was 51.3% and the “Inhibition (%) of aldose reductase” value ([1]; concentration 10 μg/ml) was 76.4%. The IC50 ([1]; rat lens enzyme, pH 6.2, unit (μM) printed beside the value) was 0.46 µM.

From patent US7192591B2, “Pharmaceutical composition comprising an extract of Elfvingia applanata for the prevention and the treatment of diabetes and diabetic complications” (priority 2002, dated 2007)
